# Laboratory results published in patent publication US11618894B2, “Bacteria engineered to reduce hyperphenylalaninemia” (Synlogic Operating Company, Inc., priority 2015, dated 2023).
# Experiments:
# [1] = Kinetics of phenylalanine in the enterocirculation model; format: in vivo, PKU (enu2) mice; conditions: subcutaneous 0.1 mg/g phenylalanine
# Protocol: To characterize the phenylalanine enterocirculation model, first the kinetics of serum levels of phenylalanine post phenylalanine challenger were assessed.
# On day −6, PKU (enu2) mice were placed on phenylalanine-free chow and water (+)Phe (0.5 g/L)
# On day 1, animals were bled to get T=0 (pre Phe challenge), and animals were randomized into two groups based on phenylalanine levels measured. The first treatment group (n=15) included mice for use for the 2, 6 and 24 hour post phenylalanine challenge time points; Group 2 (n=15) included mice for the 4 and 8 hour post phenylalanine challenge time points.
# Mice were pre-weighed to obtain the average weight for each group. Phenylalanine was dosed at a concentration equal to average group weight. Animals were dosed subcutaneously with 0.1 mg/g phenylalanine. In Group 1, animals were bled at 2, 6 and 24 h post Phe challenge. In Group 2, animals were bled at 4 and 8 h post Phe challenge. Whisker plots in FIG. 38A and FIG. 38B show distribution of mouse blood phenylalanine levels (both overall phenylalanine levels (FIG. 38A) and change in phenylalanine levels from T0 (FIG. 38B). Phenylalanine levels were stably elevated over at least a 6 hour period. […]
# On day −6, PKU mice were placed on phenylalanine-free chow and water (+)Phe (0.5 g/L). […] Animals were randomized into three treatment groups based on phenylalanine levels measured. […]
# [2] = tested on: hippurate; assay: Kinetics of hippurate recovery in urine, gavage of live cells vs pure TCA; format: in vivo, mice
# From the text: FIG. 56 depicts a graph showing hippurate recovery in urine, and comparing kinetics of the generation of hippuric acid from phenylalanine through the gavage of live cells to the generation of hippuric acid derived from pure TCA gavage.
# [3] = Turnover of orally gavaged TCA into hippuric acid, recovery in urine; format: in vivo, Pah ENU2/2 mice
# Protocol: To determine whether hippuric acid detection in the urine is suitable as a measure for in vivo cell activity and a potential biomarker, the extent of turnover of TCA into hippuric acid was assessed by oral gavage of various concentrations of TCA in PKU mice and subsequent measurement of TCA and hippuric acid by LC/MS.
# Various TCA concentrations were administered by oral gavage.
# Urine and feces were transferred to appropriate tubes and store samples on ice until processed for MS analysis.
# Next, the kinetics of conversion of TCA to hippuric acid was assessed in a time course post pure TCA oral gavage. […] TCA concentrations were administered by oral gavage. […] Urine was transferred to appropriate tubes and store samples on ice until processed for MS analysis.
# [4] = Oral gavage of TCA in PKU mice, recovery of TCA and hippuric acid in urine, feces and blood
# [5] = oral gavage 0.0125, 0.025, 0.05 or 0.1 mg/g TCA, 4 hours after gavage
Compound,period over which blood phenylalanine levels were stably elevated [1] [h],time of rapid decrease in hippurate recovery in urine post collection start [2] [min],"recovery of TCA in the form of hippurate in the urine [3, 5]","TCA and hippurate detected in blood and feces ([3]; oral gavage of TCA, 4 h, data not shown)","recovery of TCA in the form of hippurate in urine [4, 5]","TCA and hippurate in blood and feces ([4]; oral gavage 0.0125-0.1 mg/g TCA, 4 hours post gavage)"
"N[C@@H](Cc1ccccc1)C(=O)O [Phenylalanine, phenylalanine]",≥ 6,,,,,
"O=C(O)/C=C/c1ccccc1 [TCA, Trans-cinnamic acid]",,≤ 15,nearly full recovery,Insignificant amounts,nearly full recovery,Insignificant amounts
